# In patent publication US7420069B2, “Crystalline composition containing escitalopram” (H. Lundbeck A/S, priority 2001, dated 2008):
# Where a name gives a salt, the structure may show the parent alone.
# Assay: Particle size distribution by laser diffraction (Sympatec Helos)
# Format: physicochemical
# Settings: for particle size: product of the prior process (background statement), method not stated at that place
# Description: As used herein, “particle size distribution” means the cumulative volume size distribution of equivalent spherical diameters as determined by laser diffraction at 1 bar dispersive pressure in a Sympatec Helos equipment. “Median particle size”, correspondingly, means the median of said particle size distribution.
# A wet filter cake obtained by precipitation of crude escitalopram oxalate by mixing of ethanolic solutions of escitalopram and oxalic acid, respectively, and containing approximately 35 kg escitalopram oxalate was suspended in 322 L ethanol. The material was dissolved by heating to reflux, and 150 L ethanol was removed by distillation. Cooling was applied, and the mixture was cooled from reflux to 15° C. with a cooling rate between 0.2 and 0.5° C./min in the temperature interval 80 to 40° C. During cooling, the mixture was seeded with escitalopram oxalate at 75, 65 and 60° C. (10 g each time). The crystallization mixture was kept at 15° C. for 10 hours before the crystalline escitalopram oxalate was isolated. Purified escitalopram oxalate (27.7 kg, […]) was obtained by filtration of the crystallization mixture, washing with ethanol and drying of the filter cake.
"Particle size distribution, 10% quantile (Quantile 10%, cumulative volume size distribution, Sympatec Helos, 1 bar dispersive pressure) [μm]","Particle size distribution, 50% quantile (median particle size) (Quantile 50%, cumulative volume size distribution, Sympatec Helos, 1 bar dispersive pressure) [μm]","Particle size distribution, 90% quantile (Quantile 90%, cumulative volume size distribution, Sympatec Helos, 1 bar dispersive pressure) [μm]",particle size,Compound
13,163,455,–,"CN(C)CCC[C@@]1(c2ccc(F)cc2)OCc2cc(C#N)ccc21.O=C(O)C(=O)O [Example 1, (S)-1-[3-(dimethylamino)propyl]-1-(4-fluorophenyl)-1,3-dihydro-5-isobenzofurancarbonitrile oxalate]"
–,–,–,2-20 μm,"CN(C)CCCC1(c2ccc(F)cc2)OCc2cc(C#N)ccc21 (centres unmarked) [citalopram hydrobromide, reference compound]"
–,–,–,2-20 μm,"CN(C)CCC[C@@]1(c2ccc(F)cc2)OCc2cc(C#N)ccc21.O=C(O)C(=O)O [escitalopram oxalate, (S)-1-[3-(dimethylamino)propyl]-1-(4-fluorophenyl)-1,3-dihydro-5-isobenzofurancarbonitrile oxalate, reference compound]"
